Patent publication US12466781B2, “Thyromimetics” (Autobahn Therapeutics, Inc., priority 2019, dated 2025)
Read-outs that look alike come from different tables or passages of the source.

Tests used:
[1] = Tissue distribution studies (tissue concentrations by LC-MS/MS); assay type: in vivo, male C57Bl/6 mice; details: for AUC(4-hr) Heart / AUC(4-hr) Liver: mice, targeted dose 0.100 mg/kg; for brain levels of parent acid Compound 15: PO dosing (0.1 mg/kg) of the amide prodrug, compared to dosing Compound 15 itself, FIG. 1
Procedure: For tissue concentration studies in male C57Bl/6 mice, test compounds are formulated as NMP/solutol/PBS solution, at a concentration of 0.05 mg/mL and dosed at 2 mL/kg with the targeted dose of 0.100 mg/kg via SC injection or oral dosing. […] The pharmacokinetic parameters are determined by non-compartmental methods using WinNonlin. Area under the drug curves (AUC) values are determined by trapezoidal approximation; tissue-to-tissue ratios are determined by comparing AUC values.

TRα = target: T1, TRα (Homo sapiens, UniProt P10827); assay: Thyroid-hormone reporter-gene assay (TRα-Gal4 hybrid, luciferase, HEK293); assay type: cell-based
T1 construct: expressed in transfected cells; host or cells: HEK293
T1 sequence (P10827 163-410 isoform P10827-2 limits assumed): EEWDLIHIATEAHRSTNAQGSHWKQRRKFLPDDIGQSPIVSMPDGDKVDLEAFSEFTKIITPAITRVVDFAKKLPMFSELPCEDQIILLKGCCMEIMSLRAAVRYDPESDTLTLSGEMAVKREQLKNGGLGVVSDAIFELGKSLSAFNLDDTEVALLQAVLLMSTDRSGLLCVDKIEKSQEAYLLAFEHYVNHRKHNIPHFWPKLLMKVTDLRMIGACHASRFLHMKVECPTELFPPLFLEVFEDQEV
Procedure: (§1) Compounds were tested for thyroid-hormone receptor activity using TR reporter-gene assays. Reporter cells used in the assays express a TR-receptor hybrid (either TRα or TRβ) in which the native N-terminal DNA binding domain (DBD) has been replaced with that of the yeast Gal4 DBD. The reporter gene, firefly luciferase, is functionally linked to the Gal4 upstream activation sequence (UAS). Both cell lines were derived from human embryonic kidney (HEK293).
(§2) Step 1: A suspension of reporter cells was prepared in cell recovery medium containing 10% charcoal-stripped FBS, and dispensed into assay plates. The plates were pre-incubated for 6 hours in a cell culture incubator (37° C./5% CO2/85% humidity).
(§3) These intermediate stocks were subsequently diluted directly into compound screening medium containing 10% charcoal-stripped FBS to generate “2×-concentration” treatment media (containing 0.2, 0.4 or 0.8% DMSO).
(§4) Step 3: At the end of the pre-incubation period, culture media were discarded from the assay plates, and all wells received 100 μl of compound screening medium. 100 μl of each of the previously prepared “2×-concentration” treatment media were dispensed into duplicate assay wells, thereby achieving the desired final treatment concentrations. The final concentration of DMSO in all assay wells was 0.1, 0.2 or 0.4%. Assay plates were incubated for 24 hr in a cell culture incubator (37° C./5% CO2/85% humidity).
(§5) Step 4: At the 24 h assay endpoint, treatment media were discarded and 100 μl/well of luciferase detection reagent was added. Relative luminometer units (RLUs) were quantified from each assay well.

TRβ = target: T2, TRβ (Homo sapiens, UniProt P10828); assay: Thyroid-hormone reporter-gene assay (TRβ-Gal4 hybrid, luciferase, HEK293); assay type: cell-based; details: for T3-SI (selectivity index): calculated as EC50 (TRα)/EC50 (TRβ)
T2 construct: expressed in transfected cells; host or cells: HEK293
T2 sequence (P10828 217-461 limits assumed): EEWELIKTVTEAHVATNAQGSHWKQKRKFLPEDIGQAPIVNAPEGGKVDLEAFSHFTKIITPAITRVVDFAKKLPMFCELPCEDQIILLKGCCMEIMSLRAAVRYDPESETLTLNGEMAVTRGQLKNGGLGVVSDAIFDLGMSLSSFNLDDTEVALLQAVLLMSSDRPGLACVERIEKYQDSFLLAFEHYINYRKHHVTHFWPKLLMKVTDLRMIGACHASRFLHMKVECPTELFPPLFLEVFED
Procedure: as §1, §2, §3, §4, §5

[2] = reporter cells, 24 hr incubation, Table 2, read-out: TRα (EC50)
[3] = reporter cells, 24 hr incubation, Table 2, read-out: TRβ (EC50)

SMILES	EC50 (TRα; [2]) [µM]	T3-SI (selectivity index) (TRβ; Table 2)	EC50 (TRβ; [3]) [µM]	further results
CC(C)c1c(O)ccc(Cc2c(Cl)cc(OCC(=O)O)cc2Cl)c1F [Compound 15, 2-(3,5-dichloro-4-(2-fluoro-4-hydroxy-3-isopropylbenzyl)phenoxy)acetic acid]				AUC(4-hr) Heart [1]: 25.8 ng-hr/g of tissue; AUC(4-hr) Liver [1]: 580 ng-hr/g of tissue
CNC(=O)COc1cc(Cl)c(Cc2ccc(O)c(C(C)C)c2F)c(Cl)c1 [Compound 16, 2-(3,5-dichloro-4-(2-fluoro-4-hydroxy-3-isopropylbenzyl)phenoxy)-N-methylacetamide]				brain levels of parent acid Compound 15 [1]: dramatic increase in brain concentration of the parent acid
CC(C)c1c(O)ccc(Cc2c(Cl)cc(OCC(=O)N(C)C)cc2Cl)c1F [Compound 17, 2-(3,5-dichloro-4-(2-fluoro-4-hydroxy-3-isopropylbenzyl)phenoxy)-N,N-dimethylacetamide]				brain levels of parent acid Compound 15 [1]: increase in the brain concentration of the parent acid
CC(C)c1cc(Cc2c(Cl)cc(OCC(=O)O)c(F)c2Cl)ccc1O [Compound 62, 2-(3,5-dichloro-2-fluoro-4-(4-hydroxy-3-isopropylbenzyl)phenoxy)acetic acid]				AUC(4-hr) Heart [1]: 24.4 ng-hr/g of tissue; AUC(4-hr) Liver [1]: 550 ng-hr/g of tissue
Cc1cc(OCC(=O)O)c(F)c(Cl)c1Cc1ccc(O)c(C(C)C)c1F [Compound 109, 2-(3-chloro-2-fluoro-4-(2-fluoro-4-hydroxy-3-isopropylbenzyl)-5-methylphenoxy)acetic acid]	0.01 to 0.1	+++ (T3-SI>30×)	< 0.01	
Cc1c(F)c(OCC(=O)O)cc(Cl)c1Cc1ccc(O)c(C(C)C)c1F [Compound 112, 2-(5-chloro-2-fluoro-4-(2-fluoro-4-hydroxy-3-isopropylbenzyl)-3-methylphenoxy)acetic acid]	0.01 to 0.1	++ (3×<T3-SI≤30×)	< 0.01	
Cc1cc(OCC(=O)O)c(F)c(Cl)c1Cc1ccc(O)c(C(C)C)c1 [Compound 115, 2-(3-chloro-2-fluoro-4-(4-hydroxy-3-isopropylbenzyl)-5-methylphenoxy)acetic acid]	0.1 to 1	++ (3×<T3-SI≤30×)	0.01 to 0.1	
Cc1c(F)c(OCC(=O)O)cc(Cl)c1Cc1ccc(O)c(C(C)C)c1 [Compound 118, 2-(5-chloro-2-fluoro-4-(4-hydroxy-3-isopropylbenzyl)-3-methylphenoxy)acetic acid]	0.1 to 1	+++ (T3-SI>30×)	0.01 to 0.1	
C=C(C)c1c(F)c(OCC(=O)O)cc(Cl)c1Cc1ccc(O)c(C(C)C)c1F [Compound 121, 2-(5-chloro-2-fluoro-4-(2-fluoro-4-hydroxy-3-isopropylbenzyl)-3-(prop-1-en-2-yl)phenoxy)acetic acid]	> 1	++ (3×<T3-SI≤30×)	0.1 to 1	
CC(C)c1c(O)ccc(Cc2c(Cl)cc(OCC(=O)O)c(F)c2C(C)C)c1F [Compound 123, 2-(5-chloro-2-fluoro-4-(2-fluoro-4-hydroxy-3-isopropylbenzyl)-3-isopropylphenoxy)acetic acid]	0.1 to 1	++ (3×<T3-SI≤30×)	0.01 to 0.1	
CNC(=O)COc1cc(C)c(Cc2ccc(O)c(C(C)C)c2)c(F)c1F [Compound 133, 2-(2,3-difluoro-4-(4-hydroxy-3-isopropylbenzyl)-5-methylphenoxy)-N-methylacetamide]	0.01 to 0.1	++ (3×<T3-SI≤30×)	0.01 to 0.1	
CCc1cc(OCC(=O)Nc2onc(C)c2C)cc(Cl)c1Cc1ccc(O)c(C(C)C)c1F [Compound 142, 2-(3-chloro-5-ethyl-4-(2-fluoro-4-hydroxy-3-isopropylbenzyl)phenoxy)-N-(3,4-dimethylisoxazol-5-yl)acetamide]	0.1 to 1	++ (3×<T3-SI≤30×)	0.01 to 0.1	
CNC(=O)COc1cc(C)c(Cc2ccc(O)c(C(C)C)c2)c(Cl)c1F [Compound 143, 2-(3-chloro-2-fluoro-4-(4-hydroxy-3-isopropylbenzyl)-5-methylphenoxy)-N-methylacetamide]	0.1 to 1	+++ (T3-SI>30×)	0.01 to 0.1	
CCOC(=O)COc1cc(F)c(Cc2ccc(O)c(C(C)C)c2)c(Cl)c1F [Compound 147, ethyl 2-(3-chloro-2,5-difluoro-4-(4-hydroxy-3-isopropylbenzyl)phenoxy)acetate]	> 1	+++ (T3-SI>30×)	0.1 to 1	
CCOC(=O)COc1cc(Cl)c(Cc2ccc(O)c(C(C)C)c2)c(Cl)c1OC [Compound 165, ethyl 2-(3,5-dichloro-4-(4-hydroxy-3-isopropylbenzyl)-2-methoxyphenoxy)acetate]	0.1 to 1	++ (3×<T3-SI≤30×)	0.1 to 1	
CNC(=O)COc1cc(Cl)c(Cc2ccc(O)c(C(C)C)c2)c(Cl)c1OC [Compound 167, 2-(3,5-dichloro-4-(4-hydroxy-3-isopropylbenzyl)-2-methoxyphenoxy)-N-methylacetamide]	0.01 to 0.1	++ (3×<T3-SI≤30×)	0.01 to 0.1	
CC(C)c1cc(Cc2c(Cl)cc(OCC(=O)O)cc2Cl)ccc1O [JD-21, reference compound]				EC50 (TRα; Table 3, read-out: EC50-TRα): 0.19 µM; EC50 (TRβ; Table 3, read-out: EC50-TRβ): 0.079 µM; T3-SI (TRβ; selectivity index, Table 3): 14
